How the values were obtained:
Assay type in all cases: biochemical
[1] = biological target: ProfilerPro Kinase Selectivity Assay Kit kinases (Homo sapiens, UniProt P06239); details: LCK; 1 μM compound concentration
[2] = biological target: ProfilerPro Kinase Selectivity Assay Kit kinases (Homo sapiens, UniProt P04049); details: cRAF; 1 μM compound concentration
[3] = biological target: ProfilerPro Kinase Selectivity Assay Kit kinases (Homo sapiens, UniProt Q9P0L2); details: MARK1; 1 μM compound concentration
[4] = biological target: ProfilerPro Kinase Selectivity Assay Kit kinases (Homo sapiens, UniProt P28482); details: ERK2; 1 μM compound concentration
[5] = biological target: ProfilerPro Kinase Selectivity Assay Kit kinases (Homo sapiens, UniProt P07948); details: LYN; 1 μM compound concentration
[6] = biological target: ProfilerPro Kinase Selectivity Assay Kit kinases (Homo sapiens, UniProt P35968); details: KDR; 1 μM compound concentration
[7] = biological target: ProfilerPro Kinase Selectivity Assay Kit kinases (Homo sapiens, UniProt Q13188); details: MST2; 1 μM compound concentration
[8] = biological target: ProfilerPro Kinase Selectivity Assay Kit kinases (Homo sapiens, UniProt P11362); details: FGFR1; 1 μM compound concentration
[9] = biological target: ProfilerPro Kinase Selectivity Assay Kit kinases (Homo sapiens, UniProt Q16539); details: p38 alpha; 1 μM compound concentration
[10] = biological target: ProfilerPro Kinase Selectivity Assay Kit kinases (Homo sapiens, UniProt Q13627); details: DYRK1a; 1 μM compound concentration
[11] = biological target: ProfilerPro Kinase Selectivity Assay Kit kinases (Homo sapiens, UniProt P24941); details: CDK2; 1 μM compound concentration
[12] = biological target: ProfilerPro Kinase Selectivity Assay Kit kinases (Homo sapiens, UniProt O75582); details: MSK1; 1 μM compound concentration
[13] = biological target: ProfilerPro Kinase Selectivity Assay Kit kinases (Homo sapiens, UniProt P06241); details: FYN; 1 μM compound concentration
[14] = biological target: ProfilerPro Kinase Selectivity Assay Kit kinases (Homo sapiens, UniProt P49841); details: GSK3 beta; 1 μM compound concentration
[15] = biological target: ProfilerPro Kinase Selectivity Assay Kit kinases (Homo sapiens, UniProt P49137); details: MAPKAPK2; 1 μM compound concentration
[16] = biological target: ProfilerPro Kinase Selectivity Assay Kit kinases (Homo sapiens, UniProt P36888); details: FLT3; 1 μM compound concentration
[17] = biological target: ProfilerPro Kinase Selectivity Assay Kit kinases (Homo sapiens, UniProt Q9P1W9); details: PIM2; 1 μM compound concentration
[18] = system: ProfilerPro Kinase Selectivity Assay Kit kinases; details: 1 μM compound concentration
[19] = biological target: ProfilerPro Kinase Selectivity Assay Kit kinases (Homo sapiens, UniProt Q15418); details: RSK1; 1 μM compound concentration
[20] = biological target: ProfilerPro Kinase Selectivity Assay Kit kinases (Homo sapiens, UniProt P48730); details: CK1 delta; 1 μM compound concentration
[21] = biological target: ProfilerPro Kinase Selectivity Assay Kit kinases (Homo sapiens, UniProt Q16566); details: CAMK4; 1 μM compound concentration
[22] = biological target: ProfilerPro Kinase Selectivity Assay Kit kinases (Homo sapiens, UniProt O75116); details: ROCK2; 1 μM compound concentration
[23] = biological target: ProfilerPro Kinase Selectivity Assay Kit kinases (Homo sapiens, UniProt P23443); details: p70S6K; 1 μM compound concentration
[24] = biological target: ProfilerPro Kinase Selectivity Assay Kit kinases (Homo sapiens, UniProt P12931); details: SRC; 1 μM compound concentration
[25] = biological target: ProfilerPro Kinase Selectivity Assay Kit kinases (Homo sapiens, UniProt P06213); details: INSR; 1 μM compound concentration
[26] = biological target: ProfilerPro Kinase Selectivity Assay Kit kinases (Homo sapiens, UniProt P31749); details: AKT1; 1 μM compound concentration
[27] = biological target: ProfilerPro Kinase Selectivity Assay Kit kinases (Homo sapiens, UniProt P00519); details: ABL; 1 μM compound concentration
[28] = biological target: ProfilerPro Kinase Selectivity Assay Kit kinases (Homo sapiens, UniProt P31751); details: AKT2; 1 μM compound concentration
[29] = biological target: ProfilerPro Kinase Selectivity Assay Kit kinases (Homo sapiens, UniProt P08581); details: cMET; 1 μM compound concentration
[30] = biological target: ProfilerPro Kinase Selectivity Assay Kit kinases (Homo sapiens, UniProt Q13976); details: PKGa2; 1 μM compound concentration
[31] = biological target: ProfilerPro Kinase Selectivity Assay Kit kinases (Homo sapiens, UniProt Q8IW41); details: PRAK; 1 μM compound concentration

Chain of ProfilerPro Kinase Selectivity Assay Kit kinases (Homo sapiens, UniProt Q16539) (Q16539 2-360 limits assumed): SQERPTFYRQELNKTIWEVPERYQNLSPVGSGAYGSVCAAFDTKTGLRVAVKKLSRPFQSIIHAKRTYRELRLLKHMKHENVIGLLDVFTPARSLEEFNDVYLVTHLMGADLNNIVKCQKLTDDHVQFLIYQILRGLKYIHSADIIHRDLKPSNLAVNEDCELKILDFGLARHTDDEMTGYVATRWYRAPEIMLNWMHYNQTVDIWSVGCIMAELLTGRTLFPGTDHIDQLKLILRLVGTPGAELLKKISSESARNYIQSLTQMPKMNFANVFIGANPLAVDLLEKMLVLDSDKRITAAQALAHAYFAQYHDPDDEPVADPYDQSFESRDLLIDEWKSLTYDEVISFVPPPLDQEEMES
Chain of ProfilerPro Kinase Selectivity Assay Kit kinases (Homo sapiens, UniProt P11362) (P11362 22-822 limits assumed): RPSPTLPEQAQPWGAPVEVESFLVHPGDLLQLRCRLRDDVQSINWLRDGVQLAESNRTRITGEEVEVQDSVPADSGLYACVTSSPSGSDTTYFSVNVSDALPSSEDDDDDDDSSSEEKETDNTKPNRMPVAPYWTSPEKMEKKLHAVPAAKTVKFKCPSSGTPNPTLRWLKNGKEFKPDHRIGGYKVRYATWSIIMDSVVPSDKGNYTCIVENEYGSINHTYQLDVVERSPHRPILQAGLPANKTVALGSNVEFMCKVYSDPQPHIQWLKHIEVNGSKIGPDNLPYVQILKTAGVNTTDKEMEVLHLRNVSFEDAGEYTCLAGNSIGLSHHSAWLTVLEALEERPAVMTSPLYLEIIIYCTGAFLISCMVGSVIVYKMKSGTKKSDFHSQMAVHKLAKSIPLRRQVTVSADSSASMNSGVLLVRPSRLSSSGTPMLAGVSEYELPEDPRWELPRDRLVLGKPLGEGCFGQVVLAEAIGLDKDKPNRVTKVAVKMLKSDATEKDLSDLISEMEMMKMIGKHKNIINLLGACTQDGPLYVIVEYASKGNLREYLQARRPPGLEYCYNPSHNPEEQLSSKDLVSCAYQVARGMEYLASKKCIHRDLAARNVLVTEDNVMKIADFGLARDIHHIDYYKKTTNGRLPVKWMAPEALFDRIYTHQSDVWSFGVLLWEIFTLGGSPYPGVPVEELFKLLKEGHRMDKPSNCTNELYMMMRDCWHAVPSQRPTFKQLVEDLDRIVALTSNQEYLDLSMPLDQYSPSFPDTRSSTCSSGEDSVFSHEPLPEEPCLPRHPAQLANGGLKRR
Chain of ProfilerPro Kinase Selectivity Assay Kit kinases (Homo sapiens, UniProt Q13976) (Q13976 2-671 limits assumed): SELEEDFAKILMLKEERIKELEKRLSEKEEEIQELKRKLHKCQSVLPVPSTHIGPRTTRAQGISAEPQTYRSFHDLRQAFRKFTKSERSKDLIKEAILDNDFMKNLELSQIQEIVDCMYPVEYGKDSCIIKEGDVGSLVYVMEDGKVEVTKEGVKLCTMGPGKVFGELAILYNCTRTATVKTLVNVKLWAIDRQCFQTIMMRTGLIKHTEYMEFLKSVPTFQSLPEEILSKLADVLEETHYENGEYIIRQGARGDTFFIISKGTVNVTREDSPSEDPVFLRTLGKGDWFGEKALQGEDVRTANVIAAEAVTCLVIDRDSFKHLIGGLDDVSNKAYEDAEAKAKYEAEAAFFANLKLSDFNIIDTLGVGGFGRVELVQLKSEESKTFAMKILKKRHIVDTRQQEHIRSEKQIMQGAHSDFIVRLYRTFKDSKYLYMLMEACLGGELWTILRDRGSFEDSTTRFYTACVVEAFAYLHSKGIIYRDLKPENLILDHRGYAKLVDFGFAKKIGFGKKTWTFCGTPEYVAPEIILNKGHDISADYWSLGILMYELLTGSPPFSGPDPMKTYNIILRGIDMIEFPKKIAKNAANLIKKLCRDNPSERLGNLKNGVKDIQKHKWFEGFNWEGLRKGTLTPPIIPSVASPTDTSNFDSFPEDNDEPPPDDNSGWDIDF
Chain of ProfilerPro Kinase Selectivity Assay Kit kinases (Homo sapiens, UniProt P06239) (P06239 2-509 limits assumed): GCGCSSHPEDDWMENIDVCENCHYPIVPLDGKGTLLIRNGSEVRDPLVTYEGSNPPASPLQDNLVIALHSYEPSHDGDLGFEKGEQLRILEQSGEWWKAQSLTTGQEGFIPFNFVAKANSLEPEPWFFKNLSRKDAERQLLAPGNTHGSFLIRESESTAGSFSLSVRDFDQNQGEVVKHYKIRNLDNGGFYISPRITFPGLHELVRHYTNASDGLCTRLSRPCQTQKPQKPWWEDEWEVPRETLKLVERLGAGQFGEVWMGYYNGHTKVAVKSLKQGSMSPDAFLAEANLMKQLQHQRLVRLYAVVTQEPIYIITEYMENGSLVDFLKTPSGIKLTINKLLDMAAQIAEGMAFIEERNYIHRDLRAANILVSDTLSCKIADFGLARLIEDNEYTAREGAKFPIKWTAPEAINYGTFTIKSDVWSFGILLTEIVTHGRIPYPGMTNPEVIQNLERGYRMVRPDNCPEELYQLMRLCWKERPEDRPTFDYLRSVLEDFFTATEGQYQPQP
Chain of ProfilerPro Kinase Selectivity Assay Kit kinases (Homo sapiens, UniProt P08581) (P08581 25-1390 limits assumed): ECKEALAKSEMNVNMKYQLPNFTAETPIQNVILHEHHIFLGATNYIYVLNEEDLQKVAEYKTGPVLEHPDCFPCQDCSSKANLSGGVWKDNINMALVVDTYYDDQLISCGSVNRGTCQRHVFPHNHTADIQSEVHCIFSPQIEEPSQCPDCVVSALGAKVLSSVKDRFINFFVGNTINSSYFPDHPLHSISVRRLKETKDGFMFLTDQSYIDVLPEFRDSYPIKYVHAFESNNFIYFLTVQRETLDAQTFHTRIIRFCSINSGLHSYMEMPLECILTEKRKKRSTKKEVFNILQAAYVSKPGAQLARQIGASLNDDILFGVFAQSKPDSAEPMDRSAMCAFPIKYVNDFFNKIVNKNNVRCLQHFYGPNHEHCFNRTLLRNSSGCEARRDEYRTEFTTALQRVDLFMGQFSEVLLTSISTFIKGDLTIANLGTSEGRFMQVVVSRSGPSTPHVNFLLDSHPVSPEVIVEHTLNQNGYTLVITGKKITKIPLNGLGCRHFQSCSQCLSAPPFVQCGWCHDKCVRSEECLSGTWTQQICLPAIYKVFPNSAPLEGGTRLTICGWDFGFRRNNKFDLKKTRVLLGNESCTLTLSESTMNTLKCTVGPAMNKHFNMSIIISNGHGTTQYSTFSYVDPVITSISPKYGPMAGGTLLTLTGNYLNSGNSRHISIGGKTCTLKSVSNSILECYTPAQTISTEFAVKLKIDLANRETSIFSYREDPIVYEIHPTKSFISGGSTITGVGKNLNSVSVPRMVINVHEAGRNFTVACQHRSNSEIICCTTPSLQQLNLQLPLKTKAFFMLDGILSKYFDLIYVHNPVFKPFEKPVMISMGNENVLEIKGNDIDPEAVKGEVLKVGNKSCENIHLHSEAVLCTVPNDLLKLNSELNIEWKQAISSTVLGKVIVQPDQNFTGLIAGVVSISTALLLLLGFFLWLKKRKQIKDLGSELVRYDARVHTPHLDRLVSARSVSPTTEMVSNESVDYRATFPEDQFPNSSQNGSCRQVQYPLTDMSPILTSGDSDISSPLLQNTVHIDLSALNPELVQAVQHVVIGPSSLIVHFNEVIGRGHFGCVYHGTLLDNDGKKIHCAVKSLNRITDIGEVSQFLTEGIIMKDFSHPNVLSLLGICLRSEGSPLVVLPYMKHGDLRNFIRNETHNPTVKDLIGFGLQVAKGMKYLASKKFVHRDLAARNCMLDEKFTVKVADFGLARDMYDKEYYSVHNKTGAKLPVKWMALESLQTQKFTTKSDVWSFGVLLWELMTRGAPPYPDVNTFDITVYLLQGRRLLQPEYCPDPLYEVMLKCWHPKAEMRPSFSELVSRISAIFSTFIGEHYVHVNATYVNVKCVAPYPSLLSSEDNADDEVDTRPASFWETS
Chain of ProfilerPro Kinase Selectivity Assay Kit kinases (Homo sapiens, UniProt P35968) (P35968 20-1356 limits assumed): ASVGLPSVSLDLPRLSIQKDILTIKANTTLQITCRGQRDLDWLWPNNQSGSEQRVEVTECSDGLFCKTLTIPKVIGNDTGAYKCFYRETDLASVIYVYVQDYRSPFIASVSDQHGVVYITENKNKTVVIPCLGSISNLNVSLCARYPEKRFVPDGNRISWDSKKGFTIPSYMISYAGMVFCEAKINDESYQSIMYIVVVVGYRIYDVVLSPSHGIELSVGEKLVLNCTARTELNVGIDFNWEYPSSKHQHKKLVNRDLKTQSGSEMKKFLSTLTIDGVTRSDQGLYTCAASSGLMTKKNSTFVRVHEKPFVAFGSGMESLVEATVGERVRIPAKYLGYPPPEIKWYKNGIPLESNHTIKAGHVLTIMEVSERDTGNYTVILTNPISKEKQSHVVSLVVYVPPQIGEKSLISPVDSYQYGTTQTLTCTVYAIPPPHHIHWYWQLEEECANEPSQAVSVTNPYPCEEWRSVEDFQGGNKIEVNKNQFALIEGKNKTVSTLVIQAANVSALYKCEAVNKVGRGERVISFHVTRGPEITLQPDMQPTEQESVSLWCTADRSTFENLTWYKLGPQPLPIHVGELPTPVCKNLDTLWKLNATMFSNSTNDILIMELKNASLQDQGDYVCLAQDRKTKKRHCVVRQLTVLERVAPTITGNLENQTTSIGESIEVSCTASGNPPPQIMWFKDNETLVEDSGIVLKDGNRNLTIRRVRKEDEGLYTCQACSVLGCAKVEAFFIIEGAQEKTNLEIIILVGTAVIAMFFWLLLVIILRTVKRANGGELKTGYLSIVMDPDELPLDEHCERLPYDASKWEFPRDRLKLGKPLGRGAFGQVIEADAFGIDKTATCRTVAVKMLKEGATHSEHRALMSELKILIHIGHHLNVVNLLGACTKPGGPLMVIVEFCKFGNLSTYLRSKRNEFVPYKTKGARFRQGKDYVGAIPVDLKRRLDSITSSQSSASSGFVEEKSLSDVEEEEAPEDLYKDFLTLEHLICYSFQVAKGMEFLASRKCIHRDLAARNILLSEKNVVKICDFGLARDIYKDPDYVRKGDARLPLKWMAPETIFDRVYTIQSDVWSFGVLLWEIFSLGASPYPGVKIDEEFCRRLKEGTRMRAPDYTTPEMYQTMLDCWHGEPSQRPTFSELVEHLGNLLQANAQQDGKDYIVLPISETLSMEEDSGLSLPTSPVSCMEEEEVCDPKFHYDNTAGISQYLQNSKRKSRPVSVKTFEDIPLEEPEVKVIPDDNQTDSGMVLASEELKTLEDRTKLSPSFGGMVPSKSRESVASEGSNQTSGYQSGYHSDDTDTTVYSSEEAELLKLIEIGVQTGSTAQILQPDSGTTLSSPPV

| POC (Percent of control) LCK [1] | POC (Percent of control) cRAF [2] | POC (Percent of control) MARK1 [3] | POC (Percent of control) ERK2 [4] | POC (Percent of control) LYN [5] | POC (Percent of control) KDR [6] | POC (Percent of control) MST2 [7] | POC (Percent of control) FGFR1 [8] | POC (Percent of control) p38 alpha [9] | POC (Percent of control) DYRK1a [10] | POC (Percent of control) CDK2 [11] | POC (Percent of control) MSK1 [12] | POC (Percent of control) FYN [13] | POC (Percent of control) GSK3 beta [14] | POC (Percent of control) MAPKAPK2 [15] | POC (Percent of control) FLT3 [16] | POC (Percent of control) PIM2 [17] | POC (Percent of control) AMPK [18] | POC (Percent of control) CAMK2 [18] | POC (Percent of control) PKC beta2 [18] | SMILES | also measured |
| --- | --- | --- | --- | --- | --- | --- | --- | --- | --- | --- | --- | --- | --- | --- | --- | --- | --- | --- | --- | --- | --- |
| 92 POC | 100 POC | 131 POC | 94 POC | 97 POC | 91 POC | 98 POC | 100 POC | 92 POC | 83 POC | 100 POC | 101 POC | 97 POC | 96 POC | 100 POC | 85 POC | 96 POC | 102 POC | 95 POC | 100 POC | COc1ccc(Nc2ncc(Cc3ccc(S(C)(=O)=O)cc3)cc2-c2nc(C)nc3[nH]cnc23)cn1 [Example 103, N-(6-methoxypyridin-3-yl)-3-(2-methyl-9H-purin-6-yl)-5-(4-(methylsulfonyl)benzyl)pyridin-2-amine] | POC (Percent of control) TAK1 [18]: 115 POC; POC (Percent of control) RSK1 [19]: 100 POC; POC (Percent of control) CK1 delta [20]: 120 POC; POC (Percent of control) CAMK4 [21]: 95 POC; POC (Percent of control) ROCK2 [22]: 106 POC; POC (Percent of control) p70S6K [23]: 109 POC; POC (Percent of control) SRC [24]: 89 POC; POC (Percent of control) INSR [25]: 95 POC; POC (Percent of control) AKT1 [26]: 94 POC; POC (Percent of control) ABL [27]: 95 POC; POC (Percent of control) AKT2 [28]: 89 POC; POC (Percent of control) cMET [29]: 94 POC; POC (Percent of control) PKGa2 [30]: 98 POC; POC (Percent of control) PRAK [31]: 103 POC |
| 102 POC | 95 POC | 98 POC | 102 POC | 100 POC | 102 POC | 98 POC | 99 POC | 99 POC | 93 POC | 101 POC | 90 POC | 97 POC | 104 POC | 103 POC | 99 POC | 99 POC | 91 POC | 103 POC | 94 POC | Cc1nc(N)nc(-c2cc(CN3CCN(S(C)(=O)=O)CC3)cnc2Nc2cccc(O)c2)n1 [Example 30, 3-(3-(4-Amino-6-Methyl-1,3,5-Triazin-2-yl)-5-((4-(Methyl Sulfonyl)Piperazin-1-yl)Methyl)Pyridin-2-Ylamino)Phenol] | POC (Percent of control) TAK1 [18]: 99 POC; POC (Percent of control) RSK1 [19]: 103 POC; POC (Percent of control) CK1 delta [20]: 95 POC; POC (Percent of control) CAMK4 [21]: 94 POC; POC (Percent of control) ROCK2 [22]: 98 POC; POC (Percent of control) p70S6K [23]: 97 POC; POC (Percent of control) SRC [24]: 103 POC; POC (Percent of control) INSR [25]: 102 POC; POC (Percent of control) AKT1 [26]: 102 POC; POC (Percent of control) ABL [27]: 98 POC; POC (Percent of control) AKT2 [28]: 105 POC; POC (Percent of control) cMET [29]: 101 POC; POC (Percent of control) PKGa2 [30]: 98 POC; POC (Percent of control) PRAK [31]: 112 POC |
| 97 POC | 98 POC | 109 POC | 103 POC | 108 POC | 106 POC | 98 POC | 96 POC | 101 POC | 96 POC | 107 POC | 103 POC | 103 POC | 94 POC | 98 POC | 105 POC | 97 POC | 92 POC | 118 POC | 96 POC | Cc1nc(N)nc(-c2cccnc2Nc2cccc3[nH]ccc23)n1 [Example 22, N-(3-(4-Amino-6-Methyl-1,3,5-Triazin-2-yl)Pyridin-2-yl)-1H-Indol-4-Amine] | POC (Percent of control) TAK1 [18]: 99 POC; POC (Percent of control) RSK1 [19]: 100 POC; POC (Percent of control) CK1 delta [20]: 91 POC; POC (Percent of control) CAMK4 [21]: 95 POC; POC (Percent of control) ROCK2 [22]: 94 POC; POC (Percent of control) p70S6K [23]: 74 POC; POC (Percent of control) SRC [24]: 101 POC; POC (Percent of control) INSR [25]: 96 POC; POC (Percent of control) AKT1 [26]: 102 POC; POC (Percent of control) ABL [27]: 103 POC; POC (Percent of control) AKT2 [28]: 97 POC; POC (Percent of control) cMET [29]: 106 POC; POC (Percent of control) PKGa2 [30]: 93 POC; POC (Percent of control) PRAK [31]: 106 POC |

Source: US8772480B2, “Inhibitors of PI3 kinase and/or mTOR” (priority 2009, dated 2014)
